Measured values reported in patent US20230255921A1, “COMPOSITION FOR TREATING KCA3.1 CHANNEL-MEDIATED DISEASES COMPRISING PHENYLALKYL CARBAMATE COMPOUND” (CEL[…], priority 2020, published 2023).
Counter-ions that a name gives are not always drawn.

Columns and labels:
[1] = system: liver fibrosis induced by a CDAHFD diet; experiment: CDAHFD diet-induced liver fibrosis mouse model; assay type: in vivo, C57BL/6 wild-type mice; conditions: CDAHFD+SF-2 vs CDAHFD group, 100 mg/kg/day five times a week, 16 weeks
Experimental: (§1) To confirm the therapeutic effect of the SF-2 compound of the present invention on liver inflammation and fibrosis, an experiment was performed as follows. First, C57BL/6 wild-type mice (purchased from Orient Bio) were divided into three groups of 6 to 8, and used as a disease-induced group, a drug-administered group, and a normal control. The test mice for each group were treated as follows.
(1) Drug-induced group: Test mice were fed a CDAHFD diet (choline deficient, L-amino-acid-defined, high-fat diet with 0.1% methionine. A06071302, Research Diets, New Brunswick, N.J.) to induce fatty liver disease and fibrosis. In addition, the same amount of distilled water as that of the SF-2 compound administered to the following drug-administered group five times a week using a zonde (oral tube). In the accompanying drawing, CDAHFD indicates the disease-induced group.
(2) Drug-administered group: The SF-2 compound of the present invention, together with the CDAHFD diet, was administered (100 mg/kg/day) to test mice five times a week. In the accompanying drawing, CDAHFD+SF-2 indicates the drug-administered group.
(3) Normal control: Test mice were fed a normal diet. In addition, the same amount of distilled water as that of the SF-2 compound was administered to the drug-administered group five times a week using a zonde (oral tube). In the accompanying drawing, C or Control indicates the normal group.
The mouse models for each group were treated with drugs for 16 weeks in the same way as described above and immediately killed by administering an excess of an anesthetic, and then the livers were extracted and used in the subsequent test.
(§2) The lung and liver tissues extracted from the mouse model were fixed with a paraformaldehyde solution, and cut to a thickness of 1 to 2 mm. The cut tissue was embedded in paraffin and cut to a thickness of 4 μm, the paraffin was removed with xylene, the xylene was removed with ethanol, and the resultant was washed with tap water, thereby obtaining a paraffinized tissue specimen.
(§3) Tissue immunohistochemistry for collagen, which is a fibrotic marker, in the lung and liver tissues, was performed by Masson's trichrome staining.
(§4) The degrees of mRNA expression of pro-inflammatory or pro-fibrotic agents in lung and liver tissues extracted from the mouse models were measured by real time PCR. RNAs of these tissues were isolated using a TRIzol reagent (Molecular Research Center. Cincinnati, Ohio), and single-stranded cDNA was synthesized using BcaBEST polymerase (Takara Shuzo), followed by performing PCR.

KCa3.1 channel = KCa3.1 channel (Mus musculus, UniProt O89109); experiment: Whole-cell patch-clamp KCa3.1 current in cultured fibroblasts; assay type: cell-based; parameters: host or cells: fibroblasts (ATCC CRL-2795); conditions: FIG. 1 and FIG. 2
Experimental: Fibroblasts (CRL-2795: American Type Culture Collection, VA) were cultured in Dulbecco's Modified Eagle Medium (Hyclone, Logan, Utah). All cells were maintained in 5% CO2 under a humid condition at 37° C. The cultured fibroblasts were exposed to pro-inflammatory agents such as lipopolysaccharides (LPS) and a pro-fibrotic agent TGFβ, and the compounds of Chemical Formulas 2 to 8 of the present invention (hereinafter, referred to as SF-2 to SF-8 compounds) for 24 hours, and then anti-inflammatory and anti-fibrotic effects were tested.
Whole cell current through the cell membrane in isolated and cultured single fibroblasts was measured using a patch-clamp technique. A voltage ramp was used to apply voltage to whole-cell voltage clamp cells from −100 mV to +100 mV using a micro-glass electrode, the generated current was amplified using an amplifier (EPC-10, HEKA, Lambrecht, Germany) and then recorded at a sampling rate of 1 to 4 kHz. […]
KCa3.1 current was isolated using the following method. Ina current recorded by injecting 1 μM Ca^2+ into whole-cell voltage clamp cells using a glass electrode and applying 1-ethyl-2-benzimidazolinone (1-EBIO, 100 μM) activating KCa3.1 current, a current inhibited by KCa3.1 channel inhibitor TRAM-34 (10 μM) was determined as the KCa3.1 current, and the recorded current was normalized by division by cell capacitance.

[2] = system: lung fibrosis induced by bleomycin; experiment: Bleomycin-induced lung fibrosis mouse model; assay type: in vivo, C57BL/6 wild-type mice; conditions: BLM+SF-2 vs BLM group
Experimental: as §1, with “the” for “the therapeutic”, “compound according to” for “compound of”, “on the inhibition of” for “on liver inflammation and”, “follows. First.” for “follows. First,”
(1) Disease-induced group: Lung fibrosis was induced by injecting 1.5 units of bleomycin into the airways of test mice. In addition, the same amount of distilled water as the SF-2 compound administered to the following drug-administered group was intraperitoneally injected (100 mg/kg) 5 times a week. In the accompanying drawing, bleomycin (BLM) refers to this disease-induced group.
(2) Drug-administered group: 1.5 units of bleomycin was injected into the airways of test mice, and then the SF-2 compound of the present invention was intraperitoneally injected (100 mg/kg) five times a week. In the accompanying drawing, BLM+SF-2 indicates the drug-administered group.
(3) Normal control: The same amount of distilled water as that of bleomycin injected into the disease-induced group was injected into the airways. In addition, the same amount of distilled water as that of the SF-2 compound administered to the drug-administered group was intraperitoneally injected five times a week. In the accompanying drawing, C or Control indicates the normal group.
The mouse models for each group were treated with drugs for 4 weeks in the same way as described above and immediately killed by administering an excess of an anesthetic, and then the lungs were extracted and used in the subsequent test.
as §2, §3, §4

[3] = lung tissue, 100 mg/kg intraperitoneal five times a week, 4 weeks, FIG. 6

KCa3.1 channel, sequence (O89109 whole entry): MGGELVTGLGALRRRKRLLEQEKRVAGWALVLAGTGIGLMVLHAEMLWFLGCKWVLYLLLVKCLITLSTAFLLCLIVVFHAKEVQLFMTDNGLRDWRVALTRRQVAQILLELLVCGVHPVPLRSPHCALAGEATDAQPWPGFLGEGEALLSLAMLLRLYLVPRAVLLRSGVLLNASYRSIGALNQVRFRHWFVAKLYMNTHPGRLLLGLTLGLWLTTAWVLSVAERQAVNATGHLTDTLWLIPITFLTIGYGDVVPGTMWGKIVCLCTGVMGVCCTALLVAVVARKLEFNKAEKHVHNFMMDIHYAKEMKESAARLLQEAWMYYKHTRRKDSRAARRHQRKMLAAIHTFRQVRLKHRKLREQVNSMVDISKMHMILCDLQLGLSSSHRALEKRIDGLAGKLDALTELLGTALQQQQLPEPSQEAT

NC(=O)OC[C@H](N)Cc1ccccc1 [SF-2, (R)-2-amino-3-phenyl propylcarbamate hydrochloride]
degree of blue staining of the liver tissue (Masson's trichrome, collagen fiber) ([1]; FIG. 7): greatly decreased | mRNA expression level of Col1α ([1]; FIG. 8): greatly decreased | mRNA expression level of Col3α ([1]; FIG. 8): greatly decreased | mRNA expression level of α-SMA ([1]; FIG. 8): greatly decreased | KCa3.1 current activated by Ca2+ and 1-EBIO in cells (KCa3.1 channel): inhibited by SF-2 in a concentration-dependent manner | fibrosis degree, Masson's trichrome staining of lung tissue ([2]; intraperitoneal five times a week for 4 weeks, FIG. 5): decreased | mRNA expression level of Col1α [2, 3]: greatly decreased | mRNA expression level of Col3α [2, 3]: greatly decreased | mRNA expression level of α-SMA [2, 3]: greatly decreased
